{"source": "ChEMBL document CHEMBL1137465", "about": "“Cytostatic evaluations of nucleoside analogs related to unnatural base pairs for a genetic expansion system” (Bioorg Med Chem Lett, 2007)", "key": {"CCRF-CEM [1]": {"test_system": "CCRF-CEM", "assay": "Cytostatic activity against human CCRFCEM cells by MTT assay", "assay_type": "functional, cell-based"}, "HT-1080 [2]": {"test_system": "HT-1080", "assay": "Cytostatic activity against human HT1080 cells by MTT assay", "assay_type": "functional, cell-based"}, "[3]": {"assay": "Cytostatic activity against human WI38 cells MTT assay", "assay_type": "ADME, cell-based", "conditions": "WI-38"}, "WI-38": {"test_system": "WI-38", "assay": "Cytostatic activity against human WI38 cells assessed as relative percent survival at 25 uM by MTT assay", "assay_type": "functional", "conditions": "read-out: Survival"}, "HT-1080 [4]": {"test_system": "HT-1080", "assay": "Cytostatic activity against human HT1080 cells assessed as relative percent survival at 25 uM by MTT assay", "assay_type": "functional", "conditions": "read-out: Survival"}, "[5]": {"assay": "Cytostatic activity against human WI38 cells assessed as relative percent survival at 5 uM by MTT assay", "assay_type": "ADME, cell-based, WI-38", "conditions": "read-out: Survival"}, "HT-1080 [6]": {"test_system": "HT-1080", "assay": "Cytostatic activity against human HT1080 cells assessed as relative percent survival at 5 uM by MTT assay", "assay_type": "functional", "conditions": "read-out: Survival"}, "HT-1080 [7]": {"test_system": "HT-1080", "assay": "Cytostatic activity against human HT1080 cells at 500 uM by MTT assay", "assay_type": "functional"}, "[8]": {"assay": "Cytostatic activity against human WI38 cells at 500 uM by MTT assay", "assay_type": "ADME, cell-based, WI-38"}, "CCRF-CEM [9]": {"test_system": "CCRF-CEM", "assay": "Cytostatic activity against human CCRFCEM cells at 500 uM by MTT assay", "assay_type": "functional"}}, "data": [{"molecule": "OC[C@H]1O[C@@H](n2cnc3c(-c4cccs4)ncnc32)[C@H](O)[C@@H]1O", "values": [{"measurement": "IC50", "setting": "CCRF-CEM [1]", "value": 2.3, "unit": "µM"}, {"measurement": "IC50", "setting": "HT-1080 [2]", "value": 0.33, "unit": "µM"}, {"measurement": "IC50", "setting": "[3]", "value": 5.7, "unit": "µM"}]}, {"molecule": "Nc1nc(-c2cccs2)c2ncn([C@H]3C[C@H](O)[C@@H](CO)O3)c2n1", "values": [{"measurement": "viability at 25 µM", "setting": "WI-38", "value": 91, "unit": "%"}, {"measurement": "IC50", "setting": "CCRF-CEM [1]", "value": 340, "unit": "µM"}, {"measurement": "viability at 25 µM", "setting": "HT-1080 [4]", "value": 69, "unit": "%"}, {"measurement": "IC50", "setting": "HT-1080 [2]", "value": 38, "unit": "µM"}, {"measurement": "viability at 5 µM", "setting": "[5]", "value": 92, "unit": "%"}, {"measurement": "IC50", "setting": "[3]", "value": 500, "unit": "µM"}, {"measurement": "viability at 5 µM", "setting": "HT-1080 [6]", "value": 97, "unit": "%"}]}, {"molecule": "OC[C@H]1O[C@@H](n2cnc3c(-c4cccs4)ccnc32)[C@H](O)[C@@H]1O", "values": [{"measurement": "IC50", "setting": "CCRF-CEM [1]", "value": 230, "unit": "µM"}, {"measurement": "IC50", "setting": "HT-1080 [2]", "value": 190, "unit": "µM"}, {"measurement": "IC50", "setting": "[3]", "value": 310, "unit": "µM"}]}, {"molecule": "O=c1[nH]cccc1[C@H]1C[C@H](O)[C@@H](CO)O1", "values": [{"measurement": "inhibition at 500 µM", "setting": "HT-1080 [7]", "value": "< 50", "unit": "%"}, {"measurement": "inhibition at 500 µM", "setting": "[8]", "value": "< 50", "unit": "%"}]}, {"molecule": "OC[C@H]1O[C@@H](n2cnc3c(-c4ccco4)ncnc32)C[C@@H]1O", "values": [{"measurement": "IC50", "setting": "HT-1080 [2]", "value": 330, "unit": "µM"}, {"measurement": "inhibition at 500 µM", "setting": "CCRF-CEM [9]", "value": "< 50", "unit": "%"}, {"measurement": "inhibition at 500 µM", "setting": "[8]", "value": "< 50", "unit": "%"}]}, {"molecule": "O=Cc1cccn1[C@@H]1O[C@H](CO)[C@@H](O)[C@H]1O", "values": [{"measurement": "inhibition at 500 µM", "setting": "HT-1080 [7]", "value": "< 50", "unit": "%"}, {"measurement": "inhibition at 500 µM", "setting": "CCRF-CEM [9]", "value": "< 50", "unit": "%"}, {"measurement": "inhibition at 500 µM", "setting": "[8]", "value": "< 50", "unit": "%"}]}, {"molecule": "O=c1[nH]c(=O)n([C@H]2C[C@H](O)[C@@H](CO)O2)cc1F", "note": "[FLOXURIDINE]", "values": [{"measurement": "IC50", "setting": "CCRF-CEM [1]", "value": 0.29, "unit": "µM"}, {"measurement": "IC50", "setting": "HT-1080 [2]", "value": 0.18, "unit": "µM"}, {"measurement": "IC50", "setting": "[3]", "value": 500, "unit": "µM"}]}, {"molecule": "OC[C@H]1O[C@@H](n2cnc3c(-c4cccs4)ncnc32)C[C@@H]1O", "values": [{"measurement": "IC50", "setting": "CCRF-CEM [1]", "value": 420, "unit": "µM"}, {"measurement": "IC50", "setting": "HT-1080 [2]", "value": 95, "unit": "µM"}, {"measurement": "inhibition at 500 µM", "setting": "[8]", "value": "< 50", "unit": "%"}]}, {"molecule": "O=c1[nH]cccc1[C@@H]1O[C@H](CO)[C@@H](O)[C@H]1O", "values": [{"measurement": "inhibition at 500 µM", "setting": "HT-1080 [7]", "value": "< 50", "unit": "%"}, {"measurement": "inhibition at 500 µM", "setting": "[8]", "value": "< 50", "unit": "%"}]}, {"molecule": "O=Cc1cccn1[C@H]1C[C@H](O)[C@@H](CO)O1", "values": [{"measurement": "inhibition at 500 µM", "setting": "HT-1080 [7]", "value": "< 50", "unit": "%"}, {"measurement": "inhibition at 500 µM", "setting": "CCRF-CEM [9]", "value": "< 50", "unit": "%"}, {"measurement": "inhibition at 500 µM", "setting": "[8]", "value": "< 50", "unit": "%"}]}, {"molecule": "Nc1nc(-c2cccs2)c2ncn([C@@H]3O[C@H](CO)[C@@H](O)[C@H]3O)c2n1", "values": [{"measurement": "IC50", "setting": "HT-1080 [2]", "value": 88, "unit": "µM"}, {"measurement": "inhibition at 500 µM", "setting": "CCRF-CEM [9]", "value": "< 50", "unit": "%"}, {"measurement": "inhibition at 500 µM", "setting": "[8]", "value": "< 50", "unit": "%"}]}, {"molecule": "Nc1nc(-c2ccco2)c2ncn([C@H]3C[C@H](O)[C@@H](CO)O3)c2n1", "values": [{"measurement": "IC50", "setting": "HT-1080 [2]", "value": 290, "unit": "µM"}, {"measurement": "inhibition at 500 µM", "setting": "CCRF-CEM [9]", "value": "< 50", "unit": "%"}, {"measurement": "inhibition at 500 µM", "setting": "[8]", "value": "< 50", "unit": "%"}]}, {"molecule": "OC[C@H]1O[C@@H](n2cnc3c(-c4cccs4)ccnc32)C[C@@H]1O", "values": [{"measurement": "IC50", "setting": "CCRF-CEM [1]", "value": 120, "unit": "µM"}, {"measurement": "IC50", "setting": "HT-1080 [2]", "value": 56, "unit": "µM"}, {"measurement": "IC50", "setting": "[3]", "value": 190, "unit": "µM"}]}]}
